From US8993542B2, “Methods of treating viral infections” (priority 2008, dated 2015)

Assays:
[1] = tested on: HIV; assay: microbe, parasite or virus in culture; assay type: cell-based
[2] = tested on: HIV-1IIIB; assay: Two-drug combination antiviral assay in CEM cells (CPE), MacSynergy II; assay type: cell-based; details: for Antagonism Volume, Result 1 / Antagonism Volume, Result 2 / Antagonism Volume, Result 3 / Mean Antagonism Volume (n = 3) / Mean Synergy Volume (n = 3) / Synergy Volume, Result 1 / Synergy Volume, Result 2 / Synergy Volume, Result 3: in combination with CMX157, CEM-SS cells, 95% confidence
[3] = Human immunodeficiency virus 1, PANEL 1, WT
[4] = Human immunodeficiency virus 1, PANEL 2, WT
[5] = Human immunodeficiency virus 1, PANEL 3, 6 TAMs, no 184
[6] = Human immunodeficiency virus 1, PANEL 6, 6 TAMs + 184
[7] = Human immunodeficiency virus 1, PANEL 7, 184V
[8] = Human immunodeficiency virus 1, PANEL 9, 69ins, no 184
[9] = Human immunodeficiency virus 1, PANEL 12, 69ins + 184
[10] = Human immunodeficiency virus 1, PANEL 14, 65R, no 184
[11] = Human immunodeficiency virus 1, PANEL 15, 65R + 184V
[12] = Human immunodeficiency virus 1, PANEL 17, L74V
[13] = Human immunodeficiency virus 1, PANEL 19, L74V + M184V
[14] = Human immunodeficiency virus 1, PANEL 26, 151M, no 184
[15] = Human immunodeficiency virus 1, PANEL 28, 151M + 184
[16] = Human immunodeficiency virus 1, PANEL 29, L74V − SDM
[17] = Human immunodeficiency virus 1, PANEL 30, M184V − SDM
[18] = Human immunodeficiency virus 1, PANEL 31, K65R − SDM
[19] = Human immunodeficiency virus 1, PANEL 33, T215Y
[20] = Human immunodeficiency virus 1, PANEL 34, T215Y + M184V
[21] = Human immunodeficiency virus 1, PANEL 35, M41L + T215Y
[22] = Human immunodeficiency virus 1, PANEL 37, M41L + T215Y + M184V
[23] = Human immunodeficiency virus 1, PANEL 38, M41L + L210W + T215Y
[24] = Human immunodeficiency virus 1, PANEL 39, M41L + L210W + T215Y
[25] = Human immunodeficiency virus 1, PANEL 40, M41L + L210W + T215Y + M184V
[26] = Human immunodeficiency virus 1, PANEL 41, M41L + L210W + T215Y + M184V
[27] = Human immunodeficiency virus 1, PANEL 42, D67N + K70R
[28] = Human immunodeficiency virus 1, PANEL 44, D67N + K70R + T215F + K219E + M184V
[29] = Human immunodeficiency virus 1, PANEL 45, L210W + T215Y
[30] = Human immunodeficiency virus 1, PANEL 46, D67N + K70E
[31] = Human immunodeficiency virus 1, PANEL 47, D67N + K70E + M184V
[32] = Human immunodeficiency virus 1, PANEL 48, K70E + M184V
[33] = PANEL 40, M41L + L210W + T215Y + M184V
[34] = PANEL 41, M41L + L210W + T215Y + M184V
[35] = PANEL 44, D67N + K70R + T215F + K219E + M184V

Structure (SMILES): Nc1nc(NC2CC2)c2ncn([C@H]3C=C[C@@H](CO)C3)c2n1 [ABC, abacavir]
- IC50 [1, 3]: 1.52 µM
- IC50 [1, 4]: 1.67 µM
- IC50 [1, 5]: 7.87 µM
- IC50 [1, 6]: 14 µM
- IC50 [1, 7]: 4.78 µM
- IC50 [1, 8]: 32.6 µM
- IC50 [1, 9]: 46.5 µM
- IC50 [1, 10]: 5.69 µM
- IC50 [1, 11]: 11.8 µM
- IC50 [1, 12]: 3.36 µM
- IC50 [1, 13]: 9.24 µM
- IC50 [1, 14]: 34.3 µM
- IC50 [1, 15]: > 52 µM
- IC50 [1, 16]: 3.29 µM
- IC50 [1, 17]: 4.68 µM
- IC50 [1, 18]: 4.56 µM
- IC50 [1, 19]: 3.67 µM
- IC50 [1, 20]: 7.61 µM
- IC50 [1, 21]: 3.36 µM
- IC50 [1, 22]: 9.6 µM
- IC50 [1, 23]: 4.97 µM
- IC50 [1, 24]: 4.19 µM
- IC50 [1, 25]: 8.17 µM
- IC50 [1, 26]: 8.92 µM
- IC50 [1, 27]: 2.48 µM
- IC50 [1, 28]: 7.73 µM
- IC50 [1, 29]: 3.64 µM
- IC50 [1, 30]: 2.42 µM
- IC50 [1, 31]: 5.05 µM
- IC50 [1, 32]: 10.4 µM
- IC50 Fold Change ([1]; PANEL 1, WT): 0.86
- IC50 Fold Change ([1]; PANEL 2, WT): 0.94
- IC50 Fold Change ([1]; PANEL 3, 6 TAMs, no 184): 4.43
- IC50 Fold Change ([1]; PANEL 6, 6 TAMs + 184): 7.91
- IC50 Fold Change ([1]; PANEL 7, 184V): 2.69
- IC50 Fold Change ([1]; PANEL 9, 69ins, no 184): 18.00
- IC50 Fold Change ([1]; PANEL 12, 69ins + 184): 26.00
- IC50 Fold Change ([1]; PANEL 14, 65R, no 184): 3.20
- IC50 Fold Change ([1]; PANEL 15, 65R + 184V): 6.64
- IC50 Fold Change ([1]; PANEL 17, L74V): 1.89
- IC50 Fold Change ([1]; PANEL 19, L74V + M184V): 5.21
- IC50 Fold Change ([1]; PANEL 26, 151M, no 184): 19.00
- IC50 Fold Change ([1]; PANEL 28, 151M + 184): >29.2959
- IC50 Fold Change ([1]; PANEL 29, L74V − SDM): 1.85
- IC50 Fold Change ([1]; PANEL 30, M184V − SDM): 2.64
- IC50 Fold Change ([1]; PANEL 31, K65R − SDM): 2.57
- IC50 Fold Change ([1]; PANEL 33, T215Y): 2.06
- IC50 Fold Change ([1]; PANEL 34, T215Y + M184V): 4.29
- IC50 Fold Change ([1]; PANEL 35, M41L + T215Y): 1.89
- IC50 Fold Change ([1]; PANEL 37, M41L + T215Y + M184V): 5.41
- IC50 Fold Change ([1]; PANEL 38, M41L + L210W + T215Y): 2.80
- IC50 Fold Change ([1]; PANEL 39, M41L + L210W + T215Y): 2.36
- IC50 Fold Change [1, 33]: 4.60
- IC50 Fold Change [1, 34]: 5.02
- IC50 Fold Change ([1]; PANEL 42, D67N + K70R): 1.40
- IC50 Fold Change [1, 35]: 4.36
- IC50 Fold Change ([1]; PANEL 45, L210W + T215Y): 2.05
- IC50 Fold Change ([1]; PANEL 46, D67N + K70E): 1.36
- IC50 Fold Change ([1]; PANEL 47, D67N + K70E + M184V): 2.85
- IC50 Fold Change ([1]; PANEL 48, K70E + M184V): 5.88
- Antagonism Volume, Result 1 [2]: −35.8 nM^2 %, μM^2 % or nMμM %
- Antagonism Volume, Result 2 [2]: −2.32 nM^2 %, μM^2 % or nMμM %
- Antagonism Volume, Result 3 [2]: −12.1 nM^2 %, μM^2 % or nMμM %
- Mean Antagonism Volume (n = 3) [2]: −16.7 nM^2 %, μM^2 % or nMμM %
- Mean Synergy Volume (n = 3) [2]: 14.9 nM^2 %, μM^2 % or nMμM %
- Synergy Volume, Result 1 [2]: 25.1 nM^2 %, μM^2 % or nMμM %
- Synergy Volume, Result 2 [2]: 0 nM^2 %, μM^2 % or nMμM %
- Synergy Volume, Result 3 [2]: 19.7 nM^2 %, μM^2 % or nMμM %

Structure (SMILES): Nc1nc(=O)n(C2CSC(CO)O2)cc1F (centres unmarked) [FTC, 2-hydroxymethyl-5-(5-fluorocytosin-1-yl)-1,3-oxathiolane]
- IC50 [1, 3]: 0.89 µM
- IC50 [1, 4]: 1.57 µM
- IC50 [1, 5]: 5.73 µM
- IC50 [1, 6]: > 100 µM
- IC50 [1, 7]: > 100 µM
- IC50 [1, 8]: 29.6 µM
- IC50 [1, 9]: > 100 µM
- IC50 [1, 10]: 19.3 µM
- IC50 [1, 11]: > 100 µM
- IC50 [1, 12]: 2.14 µM
- IC50 [1, 13]: > 100 µM
- IC50 [1, 14]: 34.7 µM
- IC50 [1, 15]: > 100 µM
- IC50 [1, 16]: 1.68 µM
- IC50 [1, 17]: > 100 µM
- IC50 [1, 18]: 12.9 µM
- IC50 [1, 19]: 2.64 µM
- IC50 [1, 20]: > 100 µM
- IC50 [1, 21]: 3.13 µM
- IC50 [1, 22]: > 100 µM
- IC50 [1, 23]: 4.22 µM
- IC50 [1, 24]: 2.16 µM
- IC50 [1, 25]: > 100 µM
- IC50 [1, 26]: > 100 µM
- IC50 [1, 27]: 3.28 µM
- IC50 [1, 28]: > 100 µM
- IC50 [1, 29]: 2.62 µM
- IC50 [1, 30]: 3.39 µM
- IC50 [1, 31]: > 100 µM
- IC50 [1, 32]: > 100 µM
- IC50 Fold Change ([1]; PANEL 1, WT): 0.78
- IC50 Fold Change ([1]; PANEL 2, WT): 1.38
- IC50 Fold Change ([1]; PANEL 3, 6 TAMs, no 184): 5.02
- IC50 Fold Change ([1]; PANEL 6, 6 TAMs + 184): >87.6048
- IC50 Fold Change ([1]; PANEL 7, 184V): >87.6048
- IC50 Fold Change ([1]; PANEL 9, 69ins, no 184): 26.00
- IC50 Fold Change ([1]; PANEL 12, 69ins + 184): >87.6048
- IC50 Fold Change ([1]; PANEL 14, 65R, no 184): 17.00
- IC50 Fold Change ([1]; PANEL 15, 65R + 184V): >87.6048
- IC50 Fold Change ([1]; PANEL 17, L74V): 1.87
- IC50 Fold Change ([1]; PANEL 19, L74V + M184V): >87.6048
- IC50 Fold Change ([1]; PANEL 26, 151M, no 184): 30.00
- IC50 Fold Change ([1]; PANEL 28, 151M + 184): >87.6048
- IC50 Fold Change ([1]; PANEL 29, L74V − SDM): 1.47
- IC50 Fold Change ([1]; PANEL 30, M184V − SDM): >87.6048
- IC50 Fold Change ([1]; PANEL 31, K65R − SDM): 11.00
- IC50 Fold Change ([1]; PANEL 33, T215Y): 2.31
- IC50 Fold Change ([1]; PANEL 34, T215Y + M184V): >87.6048
- IC50 Fold Change ([1]; PANEL 35, M41L + T215Y): 2.74
- IC50 Fold Change ([1]; PANEL 37, M41L + T215Y + M184V): >87.6048
- IC50 Fold Change ([1]; PANEL 38, M41L + L210W + T215Y): 3.70
- IC50 Fold Change ([1]; PANEL 39, M41L + L210W + T215Y): 1.89
- IC50 Fold Change [1, 33]: >87.6048
- IC50 Fold Change [1, 34]: >87.6048
- IC50 Fold Change ([1]; PANEL 42, D67N + K70R): 2.87
- IC50 Fold Change [1, 35]: >87.6048
- IC50 Fold Change ([1]; PANEL 45, L210W + T215Y): 2.29
- IC50 Fold Change ([1]; PANEL 46, D67N + K70E): 2.97
- IC50 Fold Change ([1]; PANEL 47, D67N + K70E + M184V): >87.6048
- IC50 Fold Change ([1]; PANEL 48, K70E + M184V): >87.6048
- Antagonism Volume, Result 1 [2]: 0 nM^2 %, μM^2 % or nMμM %
- Antagonism Volume, Result 2 [2]: 0 nM^2 %, μM^2 % or nMμM %
- Antagonism Volume, Result 3 [2]: 0 nM^2 %, μM^2 % or nMμM %
- Mean Antagonism Volume (n = 3) [2]: 0 nM^2 %, μM^2 % or nMμM %
- Mean Synergy Volume (n = 3) [2]: 72.5 nM^2 %, μM^2 % or nMμM %
- Synergy Volume, Result 1 [2]: 61.5 nM^2 %, μM^2 % or nMμM %
- Synergy Volume, Result 2 [2]: 72.0 nM^2 %, μM^2 % or nMμM %
- Synergy Volume, Result 3 [2]: 84.1 nM^2 %, μM^2 % or nMμM %
- Interpretation of Antiviral Results (MacSynergy) ([2]; two-drug combination (with CMX157; control d4T/RBV), CEM-SS cells, listed as emtricitabine): slightly synergistic
